Data taken from patent publication US20230365576A1, “BRM Targeting Compounds And Associated Methods Of Use” (Prelude Therapeutics Incorporated, priority 2022, published 2023).

Legend:
SMARCA2 = target: T1, SMARCA2 (Homo sapiens, UniProt P51531); assay: SMARCA2 HiBiT degradation assay in HeLa cells; type: cell-based; details: 18 hours; for DC50: read-out: SMARCA2 IC50; for Dmax: HeLa
T1 construct: SMARCA2-HiBiT knock-in Hela monoclonal cell (CS302366); host or cells: HeLa (CRISPR HiBiT knock-in monoclonal line, heterozygous)
T1 sequence (P51531 whole entry): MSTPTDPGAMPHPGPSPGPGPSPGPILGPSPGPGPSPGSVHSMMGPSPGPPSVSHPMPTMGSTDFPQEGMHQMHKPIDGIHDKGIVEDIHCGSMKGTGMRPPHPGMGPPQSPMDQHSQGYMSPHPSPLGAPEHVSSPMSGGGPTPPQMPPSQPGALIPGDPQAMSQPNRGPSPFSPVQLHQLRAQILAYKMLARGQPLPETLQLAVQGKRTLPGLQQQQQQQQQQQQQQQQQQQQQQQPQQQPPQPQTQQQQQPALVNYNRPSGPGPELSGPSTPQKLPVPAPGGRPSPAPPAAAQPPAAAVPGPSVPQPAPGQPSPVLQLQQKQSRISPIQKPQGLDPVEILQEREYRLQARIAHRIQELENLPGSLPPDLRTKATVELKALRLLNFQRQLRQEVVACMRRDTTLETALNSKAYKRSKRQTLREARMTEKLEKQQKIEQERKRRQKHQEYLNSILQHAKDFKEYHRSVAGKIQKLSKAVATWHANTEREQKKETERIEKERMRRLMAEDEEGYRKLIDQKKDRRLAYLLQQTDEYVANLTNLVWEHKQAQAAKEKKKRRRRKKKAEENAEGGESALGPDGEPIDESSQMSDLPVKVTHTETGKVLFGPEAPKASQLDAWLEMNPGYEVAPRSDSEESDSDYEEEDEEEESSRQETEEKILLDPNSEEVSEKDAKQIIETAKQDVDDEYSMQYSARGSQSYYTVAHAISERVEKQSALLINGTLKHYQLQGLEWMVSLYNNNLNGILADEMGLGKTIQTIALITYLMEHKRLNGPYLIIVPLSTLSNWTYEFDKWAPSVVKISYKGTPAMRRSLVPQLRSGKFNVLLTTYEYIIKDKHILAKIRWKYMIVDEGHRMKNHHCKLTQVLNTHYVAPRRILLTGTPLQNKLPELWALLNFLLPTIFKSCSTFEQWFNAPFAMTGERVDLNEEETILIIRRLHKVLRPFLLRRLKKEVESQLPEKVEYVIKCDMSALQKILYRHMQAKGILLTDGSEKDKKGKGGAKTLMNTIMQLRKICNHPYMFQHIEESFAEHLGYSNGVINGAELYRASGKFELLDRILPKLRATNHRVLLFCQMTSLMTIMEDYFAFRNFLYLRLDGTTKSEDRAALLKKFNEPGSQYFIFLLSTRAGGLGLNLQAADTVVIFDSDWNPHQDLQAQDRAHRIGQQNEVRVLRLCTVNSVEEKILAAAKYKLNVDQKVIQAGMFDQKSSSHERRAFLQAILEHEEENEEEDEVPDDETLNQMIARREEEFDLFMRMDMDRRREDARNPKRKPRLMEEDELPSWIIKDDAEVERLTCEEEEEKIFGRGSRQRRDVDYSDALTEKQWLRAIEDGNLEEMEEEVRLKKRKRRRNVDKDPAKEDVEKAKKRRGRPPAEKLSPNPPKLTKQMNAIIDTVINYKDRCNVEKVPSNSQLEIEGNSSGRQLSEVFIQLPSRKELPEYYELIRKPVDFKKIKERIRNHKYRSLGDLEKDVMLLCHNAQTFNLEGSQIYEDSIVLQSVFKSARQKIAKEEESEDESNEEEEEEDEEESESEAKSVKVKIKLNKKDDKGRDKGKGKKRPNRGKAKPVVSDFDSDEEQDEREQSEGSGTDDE
Method in brief: (§1)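 Degradation measured as HiBiT luminescence (Nano-Glo lytic reagent) after 18 h compound exposure at 37° C. Cells were HeLa clones carrying heterozygous HiBiT tags on SMARCA2 or SMARCA4, 2500 per well; compounds at 3-fold serial dilution from 10 μM.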

SMARCA4 = target: T2, SMARCA4 (Homo sapiens, UniProt P51532); assay: SMARCA4 HiBiT degradation assay in HeLa cells; type: cell-based; details: 18 hours; for Dmax: HeLa
T2 construct: SMARCA4-HiBiT knock-in Hela monoclonal cell (CS3023226) were purchased from Promega; host or cells: HeLa (CRISPR HiBiT knock-in monoclonal line, heterozygous)
T2 sequence (P51532 whole entry): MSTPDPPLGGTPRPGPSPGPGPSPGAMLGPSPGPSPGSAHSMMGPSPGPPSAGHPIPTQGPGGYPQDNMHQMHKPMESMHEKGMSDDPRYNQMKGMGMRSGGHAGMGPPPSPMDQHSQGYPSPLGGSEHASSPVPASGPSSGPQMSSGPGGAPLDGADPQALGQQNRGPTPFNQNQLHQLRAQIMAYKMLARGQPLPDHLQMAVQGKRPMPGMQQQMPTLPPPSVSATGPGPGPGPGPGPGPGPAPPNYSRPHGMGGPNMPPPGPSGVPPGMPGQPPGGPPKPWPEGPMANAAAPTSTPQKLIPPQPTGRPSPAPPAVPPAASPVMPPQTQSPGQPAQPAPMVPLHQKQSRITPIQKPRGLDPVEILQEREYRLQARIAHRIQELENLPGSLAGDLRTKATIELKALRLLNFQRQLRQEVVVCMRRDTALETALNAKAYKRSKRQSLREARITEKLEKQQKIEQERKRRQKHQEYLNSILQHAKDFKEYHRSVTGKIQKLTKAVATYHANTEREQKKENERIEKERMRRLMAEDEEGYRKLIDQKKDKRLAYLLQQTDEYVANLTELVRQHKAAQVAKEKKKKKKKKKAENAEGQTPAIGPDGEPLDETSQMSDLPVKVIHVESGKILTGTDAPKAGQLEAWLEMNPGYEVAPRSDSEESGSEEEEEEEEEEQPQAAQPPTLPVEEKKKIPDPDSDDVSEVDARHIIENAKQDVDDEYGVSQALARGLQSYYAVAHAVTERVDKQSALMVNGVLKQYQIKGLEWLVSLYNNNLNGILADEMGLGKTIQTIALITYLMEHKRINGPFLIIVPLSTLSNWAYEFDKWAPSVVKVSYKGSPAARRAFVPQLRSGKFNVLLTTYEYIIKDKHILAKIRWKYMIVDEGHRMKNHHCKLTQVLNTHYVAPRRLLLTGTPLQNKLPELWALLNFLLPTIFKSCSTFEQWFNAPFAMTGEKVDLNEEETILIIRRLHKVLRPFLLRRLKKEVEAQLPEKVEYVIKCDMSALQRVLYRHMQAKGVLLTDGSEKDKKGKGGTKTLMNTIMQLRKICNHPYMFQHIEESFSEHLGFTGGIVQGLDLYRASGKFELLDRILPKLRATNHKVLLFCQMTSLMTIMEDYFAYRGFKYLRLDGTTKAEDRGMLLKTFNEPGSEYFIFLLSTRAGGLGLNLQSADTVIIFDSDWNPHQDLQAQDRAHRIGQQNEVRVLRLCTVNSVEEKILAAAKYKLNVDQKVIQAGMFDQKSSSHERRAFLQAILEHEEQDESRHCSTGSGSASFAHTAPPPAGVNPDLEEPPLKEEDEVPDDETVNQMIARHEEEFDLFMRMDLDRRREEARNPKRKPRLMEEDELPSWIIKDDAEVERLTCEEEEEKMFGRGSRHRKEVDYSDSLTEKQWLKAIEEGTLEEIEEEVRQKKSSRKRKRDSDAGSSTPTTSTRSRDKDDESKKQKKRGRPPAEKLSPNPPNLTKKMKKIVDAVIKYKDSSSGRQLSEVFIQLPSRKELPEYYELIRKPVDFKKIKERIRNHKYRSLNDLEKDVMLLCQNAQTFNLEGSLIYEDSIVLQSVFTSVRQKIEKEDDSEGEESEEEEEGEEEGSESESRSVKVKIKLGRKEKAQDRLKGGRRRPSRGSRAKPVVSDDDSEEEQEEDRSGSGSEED
Method in brief: as §1

| SMILES | DC50 (SMARCA2) [µM] | Dmax (SMARCA2) [%] | DC50 (SMARCA4) [µM] | Dmax (SMARCA4) [%] | SMARCA4 DMax % (SMARCA4) | SMARCA2 DMax % (SMARCA2) |
| --- | --- | --- | --- | --- | --- | --- |
| C[C@@H]1CN(CC2CCN(c3ccc4c(c3)C(=O)N(C3CCC(=O)NC3=O)C4)CC2)[C@@H](C)CN1C(=O)N1CCN2c3cc(-c4cccc(F)c4O)nnc3NCC2(C)C1 (single isomer, unassigned) [Example 91] | < 0.1 | > 75 | 0.1 to 1 | < 50 | – | – |
| C[C@@H]1CN(CC2CCN(c3ccc4c(c3)C(=O)N(C3CCC(=O)NC3=O)C4)CC2)C[C@H](C)N1C(=O)N1CCN2c3cc(-c4cccc(Cl)c4O)nnc3NCC2(C)C1 (single isomer, unassigned) [Example 92] | < 0.1 | > 75 | > 1 | < 50 | – | – |
| COCC12CNc3nnc(-c4cccc(F)c4O)cc3N1CCN(C(=O)N1CCN(CC3CCN(c4ccc5c(c4)C(=O)N([C@H]4CCC(=O)NC4=O)C5)CC3)CC1(C)C)C2 (single isomer, unassigned) [Example 93] | < 0.1 | > 75 | > 1 | < 50 | – | – |
| C[C@@H]1CN(CC2CCN(c3ccc4c(c3)C(=O)N([C@H]3CCC(=O)NC3=O)C4)CC2)C[C@H](C)N1C(=O)N1CCN2c3cc(-c4cccc(F)c4O)nnc3NCC2(C(F)(F)F)C1 (single isomer, unassigned) [Example 95] | < 0.1 | > 75 | < 0.1 | > 75 | – | – |
| C[C@@H]1CN(CC2CCN(c3ccc4c(c3)C(=O)N([C@H]3CCC(=O)NC3=O)C4)CC2)C[C@@H](C)N1C(=O)N1CCN2c3cc(-c4cccc(F)c4O)nnc3NCC2(C(F)(F)F)C1 (single isomer, unassigned) [Example 96] | < 0.1 | > 75 | < 0.1 | – | A (A=Dmax>75%) | – |
| C[C@@H]1CN(CC2CCN(c3ccc4c(c3)C(=O)N([C@H]3CCC(=O)NC3=O)C4)CC2)C[C@@H](C)N1C(=O)N1CCN2c3cc(-c4cccc(F)c4O)nnc3NCC2(C(F)(F)F)C1 (single isomer, unassigned) [Example 97] | < 0.1 | – | 0.1 to 1 | – | C (C=Dmax<50%) | A (A=Dmax>75%) |
| C[C@@H]1C[C@H](CN2CCN(c3ccc4c(c3)C(=O)N([C@H]3CCC(=O)NC3=O)C4)CC2)C[C@H](C)N1C(=O)N1CCN2c3cc(-c4cccc(F)c4O)nnc3NCC2(C(F)(F)F)C1 (single isomer, unassigned) [Example 98] | < 0.1 | > 75 | < 0.1 | – | A (A=Dmax>75%) | – |
| C[C@@H]1C[C@H](CN2CCN(c3ccc4c(c3)C(=O)N([C@H]3CCC(=O)NC3=O)C4)CC2)C[C@H](C)N1C(=O)N1CCN2c3cc(-c4cccc(F)c4O)nnc3NCC2(C(F)(F)F)C1 (single isomer, unassigned) [Example 99] | < 0.1 | – | < 0.1 | – | B (B=50%<Dmax≤75%) | A (A=Dmax>75%) |
| CC1(C)CN(CC2CCN(c3ccc4c(c3)C(=O)N([C@H]3CCC(=O)NC3=O)C4)CC2)CCN1C(=O)N1CCN2c3cc(-c4cccc(F)c4O)nnc3NCC2(C(F)(F)F)C1 (single isomer, unassigned) [Example 100] | < 0.1 | – | < 0.1 | 50 to 75 | – | A (A=Dmax>75%) |
| CC1(C)CN(CC2CCN(c3ccc4c(c3)C(=O)N([C@H]3CCC(=O)NC3=O)C4)CC2)CCN1C(=O)N1CCN2c3cc(-c4cccc(F)c4O)nnc3NCC2(C(F)(F)F)C1 (single isomer, unassigned) [Example 101] | < 0.1 | – | > 1 | – | C (C=Dmax<50%) | B (B=50%<Dmax≤75%) |
| CCC12CNc3nnc(-c4cc(F)cc(F)c4O)cc3N1CCN(C(=O)C1(F)CCC(CN3CCN(c4ccc5c(c4)C(=O)N([C@H]4CCC(=O)NC4=O)C5)CC3)CC1)C2 (single isomer, unassigned) [Example 102] | < 0.1 | > 75 | < 0.1 | – | A (A=Dmax>75%) | – |
| CCC12CNc3nnc(-c4cc(F)cc(F)c4O)cc3N1CCN(C(=O)C1(F)CCC(CN3CCN(c4ccc5c(c4)C(=O)N([C@H]4CCC(=O)NC4=O)C5)CC3)CC1)C2 (single isomer, unassigned) [Example 103] | < 0.1 | – | < 0.1 | – | B (B=50%<Dmax≤75%) | A (A=Dmax>75%) |
| CCC12CNc3nnc(-c4cccc(Cl)c4O)cc3N1CCN(C(=O)C1(F)CCN(CC3CCN(c4ccc5c(c4)C(=O)N([C@H]4CCC(=O)NC4=O)C5)CC3)CC1)C2 (single isomer, unassigned) [Example 106] | < 0.1 | > 75 | < 0.1 | > 75 | – | – |
| CCC12CNc3nnc(-c4cccc(F)c4O)cc3N1CCN(C(=O)C1(F)CCN(CC3CCN(c4ccc5c(c4)C(=O)N([C@H]4CCC(=O)NC4=O)C5)CC3)CC1)C2 (single isomer, unassigned) [Example 107] | < 0.1 | > 75 | 0.1 to 1 | – | C (C=Dmax<50%) | – |
| CCC12CNc3nnc(-c4cccc(F)c4O)cc3N1CCN(C(=O)C1(F)CCN(CC3CCN(c4ccc5c(c4)C(=O)N([C@H]4CCC(=O)NC4=O)C5)CC3)CC1)C2 (single isomer, unassigned) [Example 108] | < 0.1 | – | < 0.1 | – | A (A=Dmax>75%) | A (A=Dmax>75%) |
| CCC12CNc3nnc(-c4cc(F)cc(F)c4O)cc3N1CCN(C(=O)C1(F)CCN(CC3CCN(c4ccc5c(c4)C(=O)N([C@H]4CCC(=O)NC4=O)C5)CC3)CC1)C2 (single isomer, unassigned) [Example 109] | < 0.1 | > 75 | < 0.1 | > 75 | – | – |
| CCC12CNc3nnc(-c4cc(F)cc(F)c4O)cc3N1CCN(C(=O)C1(F)CCN(CC3CCN(c4ccc5c(c4)C(=O)N([C@H]4CCC(=O)NC4=O)C5)CC3)CC1)C2 (single isomer, unassigned) [Example 110] | < 0.1 | – | < 0.1 | – | – | – |
| CC12CNc3nnc(-c4cccc(F)c4O)cc3N1CCN(C(=O)C1(F)CCN(CC3CCN(c4ccc5c(c4)C(=O)N([C@H]4CCC(=O)NC4=O)C5)CC3)CC1)C2 (single isomer, unassigned) [Example 111] | < 0.1 | 50 to 75 | > 1 | < 50 | – | – |
| CC12CNc3nnc(-c4cc(F)cc(F)c4O)cc3N1CCN(C(=O)C1(F)CCN(CC3CCN(c4ccc5c(c4)C(=O)N([C@H]4CCC(=O)NC4=O)C5)CC3)CC1)C2 (single isomer, unassigned) [Example 112] | < 0.1 | > 75 | < 0.1 | – | A (A=Dmax>75%) | – |
| CC12CNc3nnc(-c4cc(F)cc(F)c4O)cc3N1CCN(C(=O)C1(F)CCN(CC3CCN(c4ccc5c(c4)C(=O)N([C@H]4CCC(=O)NC4=O)C5)CC3)CC1)C2 (single isomer, unassigned) [Example 113] | < 0.1 | – | > 1 | – | C (C=Dmax<50%) | A (A=Dmax>75%) |
| CC12CNc3nnc(-c4cccc(F)c4O)cc3N1CCN(C[C@H]1CC[C@H](CN3CCN(c4ccc5c(c4)C(=O)N(C4CCC(=O)NC4=O)C5)CC3)CC1)C2 (single isomer, unassigned) [Example 115] | < 0.1 | > 75 | < 0.1 | 50 to 75 | – | – |
| CC12CNc3nnc(-c4cccc(F)c4O)cc3N1CCN(C[C@H]1CC[C@H](CN3CCN(c4ccc5c(c4)C(=O)N(C4CCC(=O)NC4=O)C5)CC3)CC1)C2 (single isomer, unassigned) [Example 116] | < 0.1 | – | < 0.1 | – | – | – |
| CC12CNc3nnc(-c4cccc(F)c4O)cc3N1CCN(C[C@H]1CC[C@H](CN3CCN(c4ccc5c(c4)C(=O)N([C@H]4CCC(=O)NC4=O)C5)CC3)CC1)C2 (single isomer, unassigned) [Example 117] | < 0.1 | > 75 | < 0.1 | 50 to 75 | – | – |
| CC12CNc3nnc(-c4cccc(F)c4O)cc3N1CCN(C[C@H]1CC[C@H](CN3CCN(c4ccc5c(c4)C(=O)N([C@H]4CCC(=O)NC4=O)C5)CC3)CC1)C2 (single isomer, unassigned) [Example 118] | < 0.1 | – | < 0.1 | – | – | – |
| C[C@@H]1C[C@H](CN2CCN(c3ccc4c(c3)C(=O)N([C@H]3CCC(=O)NC3=O)C4)CC2)C[C@H](C)N1C(=O)N1CCN2c3cc(-c4cccc(F)c4O)nnc3NCC2(C)C1 (single isomer, unassigned) [Example 120] | < 0.1 | > 75 | < 0.1 | > 75 | – | – |
| C[C@@H]1C[C@H](CN2CCN(c3ccc4c(c3)C(=O)N([C@H]3CCC(=O)NC3=O)C4)CC2)C[C@H](C)N1C(=O)N1CCN2c3cc(-c4cccc(F)c4O)nnc3NCC2(C)C1 (single isomer, unassigned) [Example 121] | < 0.1 | – | < 0.1 | – | – | – |
| CC1(C)CC(CN2CCN(c3ccc4c(c3)C(=O)N([C@H]3CCC(=O)NC3=O)C4)CC2)CCN1C(=O)N1CCN2c3cc(-c4cccc(F)c4O)nnc3NCC2(C)C1 (single isomer, unassigned) [Example 123] | < 0.1 | > 75 | < 0.1 | – | A (A=Dmax>75%) | – |
| CC1(C)CC(CN2CCN(c3ccc4c(c3)C(=O)N([C@H]3CCC(=O)NC3=O)C4)CC2)CCN1C(=O)N1CCN2c3cc(-c4cccc(F)c4O)nnc3NCC2(C)C1 (single isomer, unassigned) [Example 124] | < 0.1 | – | < 0.1 | – | B (B=50%<Dmax≤75%) | A (A=Dmax>75%) |
